{
  "source": "patent US20220241223A1",
  "about": "“USE OF DISULFIRAM OR ITS DERIVATIVES FOR THE TREATMENT OF MITOCHONDRIAL DISEASES OR DYSFUNCTION” (Universite D'angers, priority 2019, published 2022)",
  "test_system": "SHY1 Mutation G137R (shy1) yeast strain",
  "test": "Halo test of growth on respiratory medium",
  "assay_type": "cell-based, Saccharomyces cerevisiae",
  "details": "FIG. 1B; shy1 mutant strain; 10 and 30 nmoles on filter",
  "procedure": "Each of the various Saccharomyces cerevisiae yeast strains used in examples 1 to 3 contain different specific mutations modeling human mutations resulting in mitochondrial diseases. At different extents, all these yeast strains present growth defect when grown on respiratory medium such as ethanol or glycerol at 28° C. or 36° C. (depending on the strain). […]\nMore precisely, 200 μL of the various yeast mutant strain grown in liquid YPD rich fermentable medium (1% Yeast Extract, 0.5% Bacto Peptone, 2% Glucose) at 0.4 OD600 were spread on agar-based solid respiratory medium: either YPG (1% Yeast Extract, 0.5% Bacto Peptone, 2% glycerol) or YPE (1% Yeast Extract, 0.5% Bacto Peptone, 2% ethanol). Small sterile filters were then placed on the agar surface and increasing concentrations of DSF were added to the filters at the indicated quantities. […]",
  "data": [
    {"smiles": "CCN(CC)C(=S)S.[Na+]", "note": "[DEDTC, Sodium diethyldithiocarbamate]", "values": [
      {"measurement": "effect on growth defect on non-fermentable (respiratory) medium", "value": "similarly suppresses the growth defect"}
    ]}
  ]
}
